Data on 3 compounds can be found in patent US4977181A, “Tromethamine salt of 1-methyl-beta-oxo-alpha-(phenylcarbamoyl)-2-pyrrolepropionitrile” (priority 1989, dated 1990).

SMILES strings stand for the structures. Structures can show the parent of a compound that is named as a salt.

Data set [1] relates to Sprague-Dawley rats. Briefly: Acute Toxicity Study (single oral dose, mortality). It is filed as in vivo, rat (Sprague-Dawley). To be noted: for Mortality, Female / Mortality, Male: single oral gavage, observed for 15 days; for Mortality, Female: female rats; for Mortality, Male: male rats. Here is the method:
(§1) A single equimolar dose of each compound is administered orally by gavage as a 3% corn starch suspension to 5 female and 5 male Sprague-Dawley rats. The animals are there observed for 15 days.
(§2) The comparative incidence of mortality for the free acid of formula I, the triethanolamine salt thereof and the tromethamine salt of formula II are as follows: […]

Data set [2] has as its system cell-mediated immunity. Briefly: enhancement of depressed cell-mediated immunity. Conditions: in words. It is filed as in vivo, rat. Here is the method: Immunopotentiating effects can be determined in BCG-immunized animals. In vitro, the enhancement of cell-mediated immunity is determined by measuring the increase in chemotaxis of macrophages isolated from BCG-immunized rats. In vivo, such is determined in the BCG-immunized adjuvant arthritic rat by measuring the effect on delayed hypersensitivity reaction essentially as described in Current Therapeutic Research 30, S34 (1981).

Data set [3] can be described thus: antiinflammatory activity. In kind it is in vivo. Conditions: in words. The method, then: The compound can be administered to the animals either enterally, preferably orally, parenterally, e.g. subcutaneously or intravenously, or topically, for example, in the form of aqueous solutions or suspensions. The applied dosage may range between about 0.1 and 100 mg/kg/day, preferably between about 1 and 50 mg/kg/day. The tests include the classical in vivo assay methods for said activities, such as the carrageenin paw-edema, adjuvant arthritis tests in rats, and the canine synovitis test.

The test system of data set [4] is cartilage matrix. Briefly: inhibition of cartilage matrix degradation. It is filed as cell-based, bovine. Conditions: in words. The method, then:
The effect on cartilage matrix degradation can be determined in the cartilage-synovium co-culture model of matrix degradation which is carried out as follows:
The proteoglycan matrix of bovine nasal septum cartilage is labeled in vitro by incorporation of ^35 S into glycosaminoglycan. Cartilage slices are incubated overnight in a sulfate-free medium containing ^35 S-sodium sulfate. ^35 S-Labeled cartilage slices are co-cultured with normal synovium explants in multiwell tissue culture plates. After 4 days incubation a 100 μl aliquot of medium is counted. Cartilage slices are hydrolyzed and a 100 μl aliquot of cartilage hydrolysate is counted. The percent ^35 S released into the medium is determined and the percent of inhibition of matrix degradation is calculated.

Data set [5] is described as follows: tolerability at therapeutically effective doses. In kind it is in vivo.
The nature of data set [6]: Acute Toxicity Study (single oral dose, mortality). It is filed as in vivo, rat (Sprague-Dawley). To be noted: rat, in vivo, po, 2400 umol/kg, 2.4 millimoles/Kg p.o., rat, both sexes; read-out: mortality rate. The method, then: as §1, §2
Setting [7] is: 2.4 Millimoles/Kg, listed as II.
[8] abbreviates: 3.6 Millimoles/Kg, listed as II.

As for `Cn1cccc1C(=O)C(C#N)C(=O)Nc1ccccc1` (stereo not drawn) [formula I, 1-methyl-beta-oxo-alpha-phenylcarbamoyl-2-pyrrolepropionitrile], the “Mortality, Female” value is given as 0/5 in data set [1] (1.2 Millimoles/Kg); 2/5 in data set [1] (2.4 Millimoles/Kg, listed as I); 4/5 in data set [1] (3.6 Millimoles/Kg, listed as I). The “Mortality, Male” value in data set [1] (1.2 Millimoles/Kg) is 0/5; in data set [1] (2.4 Millimoles/Kg, listed as I), 2/5; in data set [1] (3.6 Millimoles/Kg, listed as I), 4/5. The compound further had a mortality rate in data set [1] (2.4 millimoles/Kg p.o., rat, both sexes, 21600 min) of 40%.

On to `Cn1cccc1C(=O)C(C#N)C(=O)Nc1ccccc1` (stereo not drawn) [formula II, 1-methyl-beta-oxo-alpha-(phenylcarbamoyl)-2-pyrrolepropionitrile (1:1) tromethamine salt], for which, in data set [2], the “enhancement of depressed cell-mediated immunity” value is “enhancement of depressed cell-mediated immunity”. Also, the antiinflammatory activity result in data set [3] is “displays antiinflammatory”. Also, the “inhibition of cartilage matrix degradation” value in data set [4] is “inhibition of cartilage matrix degradation”. Also, in data set [1] (setting [7]), the “Mortality, Female” value is recorded as 0/5 and the “Mortality, Male” value was 0/5. In addition, in data set [1] (2.4 millimoles/Kg p.o., rat, both sexes), the “deaths (animals)” value is given as 0/10. In data set [1] (setting [8]), the “Mortality, Female” value is 5/5 and the “Mortality, Male” value was 5/5. The “acute toxicity compared with free acid of formula I or the triethanolamine salt” value in data set [1] (rat, in words) is given as “less toxic than the free acid of formula I or the triethanolamine salt thereof”. For the same compound, in data set [5], the tolerability entry is reported as “well tolerated” and the undesirable side effects entry is reported as “essentially free of undesirable side effects”.

As for `Cn1cccc1C(=O)C(C#N)C(=O)Nc1ccccc1` (stereo not drawn) [triethanolamine salt, triethanolamine salt of 1-methyl-beta-oxo-alpha-(phenylcarbamoyl)-2-propionitrile], the mortality at 360 h in data set [6] turned out to be 50%. Further, in data set [1] (2.4 Millimoles/Kg), the “Mortality, Female” value is reported as 3/5 and the “Mortality, Male” value is recorded as 2/5. In data set [1] (3.6 Millimoles/Kg), the “Mortality, Female” value was 5/5 and the “Mortality, Male” value was 5/5.

In general, mortality refers to the percentage killed.
